Data taken from the supplement of paper PMC10331698.
± gives the standard deviation of the averaged measurements.

Columns and labels:
Assay in all cases: level (log10 ratio to DMSO vehicle control); higher = higher biomarker level / cell amount than vehicle control
Conditions in all cases: in DMSO
[1] = compound: O=C(O)C(F)(F)C(F)(F)C(F)(F)C(F)(F)C(F)(F)C(F)(F)C(F)(F)C(F)(F)C(F)(F)C(F)(F)C(F)(F)C(F)(F)C(F)(F)F [Perfluorotetradecanoic acid]
Method: (§1)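 BioMAP Diversity Plus panel of 12 human primary cell co-culture systems (3C, 4H, LPS, SAg, BT, BF4T, BE3C, CASM3C, HDF3CGF, KF3CT, MyoF, Mphg). Compounds were added 1 h before stimulation and left for 24 h (MyoF 48 h; BT 72 h for soluble read-outs or 6 d for IgG). Biomarkers were read by ELISA, cytotoxicity by SRB, PBMC viability and proliferation by Alamar Blue. Each well value was divided by the mean of 8 DMSO control wells on the same plate and log10 transformed; duplicate blinded samples were tested at 4 concentrations.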

[2] = compound: O=S(=O)(O)C(F)(F)C(F)(F)C(F)(F)C(F)(F)C(F)(F)C(F)(F)C(F)(F)C(F)(F)F [Potassium perfluorooctanesulfonate]
Method: as §1

[3] = compound: O=C(O)C(F)(F)C(F)(F)C(F)(F)C(F)(F)C(F)(F)C(F)(F)C(F)(F)C(F)(F)C(F)(F)C(F)(F)C(F)(F)C(F)(F)F [Perfluorotridecanoic acid]
Method: as §1

[4] = compound: O=S(=O)(O)C(F)(F)C(F)(F)C(F)(F)C(F)(F)F [Perfluorobutanesulfonic acid]
Method: as §1

[5] = compound: OCC(F)(F)C(F)(F)C(F)(F)C(F)(F)C(F)(F)C(F)F [1H,1H,7H-Dodecafluoro-1-heptanol]
Method: as §1

Azathioprine = compound: Cn1cnc([N+](=O)[O-])c1Sc1ncnc2[nH]cnc12 [Azathioprine]
Method: as §1

## 3C:CD87/uPAR
[1]; 6700 nM
  level (log10): 0.032 ± 0.081
[1]; 20000 nM
  level (log10): 0.0405 ± 0.073
[2]; 6700 nM
  level (log10): -0.0065 ± 0.076
[2]; 20000 nM
  level (log10): 0.002 ± 0.017
[2]; 60000 nM
  level (log10): 0.015 ± 0.048
[3]; 1500 nM
  level (log10): 0.065 ± 0.025
[3]; 4400 nM
  level (log10): 0.0355 ± 0.039
[3]; 13000 nM
  level (log10): 0.066 ± 0.011
[3]; 40000 nM
  level (log10): 0.059 ± 0.016
[4]; 6700 nM
  level (log10): -0.007 ± 0.027
[4]; 20000 nM
  level (log10): -0.0075 ± 0.00071
[4]; 60000 nM
  level (log10): -0.0235 ± 0.022
[5]; 6700 nM
  level (log10): 0.023 ± 0.0028
[5]; 20000 nM
  level (log10): 0.002 ± 0.0099
[5]; 60000 nM
  level (log10): -0.0045 ± 0.012
Azathioprine; 1400 nM
  level (log10): 0.0255 ± 0.037
Azathioprine; 4200 nM
  level (log10): 0.016 ± 0.033
Azathioprine; 13000 nM
  level (log10): 0.0565 ± 0.018
Azathioprine; 38000 nM
  level (log10): 0.044 ± 0.0071

## 3C:CXCL8/IL-8
[1]; 6700 nM
  level (log10): -0.0045 ± 0.032
[1]; 20000 nM
  level (log10): 0.0485 ± 0.076
[2]; 6700 nM
  level (log10): 0.0295 ± 0.044
[2]; 20000 nM
  level (log10): 0.027 ± 0.02
[2]; 60000 nM
  level (log10): 0.0555 ± 0.0064
[3]; 1500 nM
  level (log10): 0.017 ± 0.025
[3]; 4400 nM
  level (log10): -0.01 ± 0.017
[3]; 13000 nM
  level (log10): -0.144 ± 0.19
[3]; 40000 nM
  level (log10): -0.715 ± 0.14
[4]; 6700 nM
  level (log10): 0.0045 ± 0.00071
[4]; 20000 nM
  level (log10): 0.008 ± 0.021
[4]; 60000 nM
  level (log10): 0.071 ± 0.04
[5]; 6700 nM
  level (log10): 0.0125 ± 0.032
[5]; 20000 nM
  level (log10): 0.0115 ± 0.021
[5]; 60000 nM
  level (log10): 0.0265 ± 0.0064
Azathioprine; 1400 nM
  level (log10): 0.016 ± 0.054
Azathioprine; 4200 nM
  level (log10): -0.01 ± 0.011
Azathioprine; 13000 nM
  level (log10): -0.026 ± 0.0085
Azathioprine; 38000 nM
  level (log10): -0.0455 ± 0.018

## 3C:CXCL9/MIG
[1]; 6700 nM
  level (log10): -0.0045 ± 0.0035
[1]; 20000 nM
  level (log10): 0.0015 ± 0.0021
[2]; 6700 nM
  level (log10): 0.0085 ± 0.0092
[2]; 20000 nM
  level (log10): -0.003 ± 0.0042
[2]; 60000 nM
  level (log10): 0.013 ± 0.013
[3]; 1500 nM
  level (log10): 0.0055 ± 0.0035
[3]; 4400 nM
  level (log10): 0.0005 ± 0.00071
[3]; 13000 nM
  level (log10): 0.003 ± 0.0085
[3]; 40000 nM
  level (log10): 0.0035 ± 0.00071
[4]; 6700 nM
  level (log10): 0.009 ± 0.016
[4]; 20000 nM
  level (log10): 0.009 ± 0.017
[4]; 60000 nM
  level (log10): 0.0175 ± 0.0021
[5]; 6700 nM
  level (log10): 0.0065 ± 0.0078
[5]; 20000 nM
  level (log10): -0.0005 ± 0.015
[5]; 60000 nM
  level (log10): -0.0015 ± 0.0021
Azathioprine; 1400 nM
  level (log10): 0.003
Azathioprine; 4200 nM
  level (log10): 0.003 ± 0.0014
Azathioprine; 13000 nM
  level (log10): 0.0025 ± 0.005
Azathioprine; 38000 nM
  level (log10): 0.0125 ± 0.0035

## 3C:HLA-DR
[1]; 6700 nM
  level (log10): -0.028 ± 0.03
[1]; 20000 nM
  level (log10): 0.0025 ± 0.037
[2]; 6700 nM
  level (log10): 0.0075 ± 0.0092
[2]; 20000 nM
  level (log10): 0.0075 ± 0.0021
[2]; 60000 nM
  level (log10): 0.0215 ± 0.0064
[3]; 1500 nM
  level (log10): -0.011 ± 0.0028
[3]; 4400 nM
  level (log10): -0.0135 ± 0.011
[3]; 13000 nM
  level (log10): -0.021 ± 0.02
[3]; 40000 nM
  level (log10): -0.0095 ± 0.011
[4]; 6700 nM
  level (log10): -0.0015 ± 0.015
[4]; 20000 nM
  level (log10): -0.007 ± 0.0057
[4]; 60000 nM
  level (log10): -0.006 ± 0.013
[5]; 6700 nM
  level (log10): 0.008 ± 0.018
[5]; 20000 nM
  level (log10): -0.0055 ± 0.016
[5]; 60000 nM
  level (log10): -0.0105 ± 0.013
Azathioprine; 1400 nM
  level (log10): 0.006 ± 0.013
Azathioprine; 4200 nM
  level (log10): -0.001 ± 0.021
Azathioprine; 13000 nM
  level (log10): 0.005 ± 0.048
Azathioprine; 38000 nM
  level (log10): 0.005 ± 0.042

## 3C:Proliferation
[1]; 6700 nM
  level (log10): -0.306 ± 0.046
[1]; 20000 nM
  level (log10): -0.329 ± 0.15
[2]; 6700 nM
  level (log10): -0.042 ± 0.035
[2]; 20000 nM
  level (log10): -0.0165 ± 0.061
[2]; 60000 nM
  level (log10): -0.0445 ± 0.0092
[3]; 1500 nM
  level (log10): -0.056 ± 0.048
[3]; 4400 nM
  level (log10): -0.025 ± 0.0085
[3]; 13000 nM
  level (log10): -0.348 ± 0.38
[3]; 40000 nM
  level (log10): -0.811 ± 0.1
[4]; 6700 nM
  level (log10): -0.002 ± 0.0014
[4]; 20000 nM
  level (log10): 0.017 ± 0.031
[4]; 60000 nM
  level (log10): -0.0525 ± 0.023
[5]; 6700 nM
  level (log10): -0.0365 ± 0.091
[5]; 20000 nM
  level (log10): -0.0885 ± 0.07
[5]; 60000 nM
  level (log10): -0.034 ± 0.045
Azathioprine; 1400 nM
  level (log10): -0.04 ± 0.057
Azathioprine; 4200 nM
  level (log10): -0.038 ± 0.081
Azathioprine; 13000 nM
  level (log10): -0.048 ± 0.018
Azathioprine; 38000 nM
  level (log10): -0.179 ± 0.031

## 3C:SRB
[1]; 6700 nM
  level (log10): -0.015 ± 0.0028
[1]; 20000 nM
  level (log10): -0.0165 ± 0.012
[2]; 6700 nM
  level (log10): 0.0105 ± 0.025
[2]; 20000 nM
  level (log10): -0.0195 ± 0.033
[2]; 60000 nM
  level (log10): -0.045 ± 0.042
[3]; 1500 nM
  level (log10): -0.017 ± 0.0085
[3]; 4400 nM
  level (log10): -0.0125 ± 0.0035
[3]; 13000 nM
  level (log10): -0.012 ± 0.016
[3]; 40000 nM
  level (log10): -0.0125 ± 0.028
[4]; 6700 nM
  level (log10): 0.004 ± 0.0099
[4]; 20000 nM
  level (log10): -0.0095 ± 0.0035
[4]; 60000 nM
  level (log10): -0.021 ± 0.0042
[5]; 6700 nM
  level (log10): -0.005 ± 0.0071
[5]; 20000 nM
  level (log10): -0.006 ± 0.0071
[5]; 60000 nM
  level (log10): -0.0025 ± 0.00071
Azathioprine; 1400 nM
  level (log10): -0.006 ± 0.0014
Azathioprine; 4200 nM
  level (log10): -0.016 ± 0.0071
Azathioprine; 13000 nM
  level (log10): -0.0275 ± 0.005
Azathioprine; 38000 nM
  level (log10): -0.0955 ± 0.019

## 4H:CCL2/MCP-1
[1]; 6700 nM
  level (log10): -0.031 ± 0.0057
[1]; 20000 nM
  level (log10): 0.0115 ± 0.019
[2]; 6700 nM
  level (log10): 0.0095 ± 0.023
[2]; 20000 nM
  level (log10): -0.0305 ± 0.0064
[2]; 60000 nM
  level (log10): -0.0215 ± 0.025
[3]; 1500 nM
  level (log10): 0.0035 ± 0.037
[3]; 4400 nM
  level (log10): -0.0025 ± 0.026
[3]; 13000 nM
  level (log10): -0.0095 ± 0.0092
[3]; 40000 nM
  level (log10): -0.033 ± 0.014
[4]; 6700 nM
  level (log10): -0.021 ± 0.0042
[4]; 20000 nM
  level (log10): -0.0095 ± 0.023
[4]; 60000 nM
  level (log10): -0.017 ± 0.018
[5]; 6700 nM
  level (log10): -0.0365 ± 0.016
[5]; 20000 nM
  level (log10): -0.028 ± 0.0085
[5]; 60000 nM
  level (log10): 0.0135 ± 0.093
Azathioprine; 1400 nM
  level (log10): 0.018 ± 0.096
Azathioprine; 4200 nM
  level (log10): 0.0255 ± 0.04
Azathioprine; 13000 nM
  level (log10): -0.035 ± 0.1
Azathioprine; 38000 nM
  level (log10): 0.0055 ± 0.042
